“Also recorded” adds a separate entry of the source.
Legend:
Sir2Tm-D101N mutant [1] = molecular target: T1, Sir2Tm-D101N mutant (Thermotoga maritima, UniProt Q9WYW0, D101N); assay: biochemical; type: biochemical; design: made in house; host or cells: E. coli; conditions: for IC50 / apparent kcat of cosubstrate-dependent deacetylation / Km: Sir2Tm-D101N mutant; for IC50: fluorolabeled p53 peptide, 37° C.; for Km: 400 μM fluorolabeled peptide, read-out: apparent KM for cosubstrate
Experimental: (§1) The deacetylation activity was measured using the Fluor de Lys-SirT1 assay (Biomol), using a peptide containing amino acids 379-RHK-K(Ac)-382 of p53 as substrate. […] The reactions were carried out at 37° C. in a 50 μL reaction volume containing 50 mM Tris, pH 8, 50 mM NaCl and 400 μM fluorolabeled peptide (˜10 times KM). […] Reactions were done at least in triplicate. The data were fitted to the Michaelis-Menten equation using SigmaPlot to obtain the kinetic constants. […] The data were fitted to equation (1) using SigmaPlot (SYSTAT) to calculate the IC50 values:
(§2) vI=v0(1−(I/(IC50+I))) Equation (1)
(§3) where v0 is the initial rate of the uninhibited reaction and vI is the initial rate of the reaction at concentration I of inhibitor.

Sir2Tm wild type [2] = molecular target: T2, Sir2Tm wild type (Thermotoga maritima, UniProt Q9WYW0); conditions: 0.1 mM ^14C-labelled base, 2 mM NAD^+, 500 μM acetylated p53 peptide, 37° C., 3 hours
Experimental: (§4) After incubation at 37° C. for 3 hours, 8 μL of each reaction was spotted on a Polygram SIL-G TLC plate (Machevey-Nagel, 20×20). The plate was developed in a pre equilibrated chamber with 80:20 ethanol:2.5 M ammonium acetate. After chromatography, the plate was air dried and exposed to a phosphorimaging screen overnight.

Sir2Tm wild type [3] = molecular target: T2, Sir2Tm wild type; type: biochemical; design: made in house; host or cells: E. coli
Experimental: as §1, §2, §3

Sir2Tm-D101N mutant [4] = molecular target: T1, Sir2Tm-D101N mutant; conditions: Sir2Tm-D101N mutant 2.5 mg/mL; 0.1 mM ^14C-labelled base, 2 mM NAD^+, 500 μM acetylated p53 peptide, 37° C., 3 hours
Experimental: as §4

T2 sequence (Q9WYW0 whole entry): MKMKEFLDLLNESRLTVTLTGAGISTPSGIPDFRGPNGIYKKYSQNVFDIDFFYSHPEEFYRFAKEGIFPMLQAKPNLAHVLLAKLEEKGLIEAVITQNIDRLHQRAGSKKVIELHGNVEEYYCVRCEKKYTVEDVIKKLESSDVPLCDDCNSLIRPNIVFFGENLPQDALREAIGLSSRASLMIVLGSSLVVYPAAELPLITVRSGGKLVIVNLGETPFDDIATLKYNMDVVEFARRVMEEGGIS
T1 sequence (Q9WYW0 whole entry D101N, the tested form may be a part): as the sequence (Q9WYW0 whole entry) above, with D101N counted along it

| SMILES | base exchange activity (formation of labelled dinucleotide) (Sir2Tm wild type [2]) | base exchange activity (formation of labelled dinucleotide) (Sir2Tm-D101N mutant [4]) | apparent kcat of cosubstrate-dependent deacetylation (Sir2Tm-D101N mutant [1]) | Km (Sir2Tm-D101N mutant [1]) [µM] | also measured |
| --- | --- | --- | --- | --- | --- |
| O=C(O)c1cccnc1 [nicotinic acid] | cannot do; also recorded: no detectable formation of NAAD | able to synthesize ^14C-labelled NAAD | – | – | IC50 (Sir2Tm-D101N mutant [1]; IC50, inhibition of NAAD-dependent deacetylation activity, 2 mM NAAD): 6.2 ± 2 mM; IC50 (Sir2Tm-D101N mutant [1]; IC50, inhibition of NAD^+-dependent deacetylation activity, 2 mM NAD^+): 11.3 ± 3.3 mM; inhibition of wild type enzyme deacetylation activity (Sir2Tm wild type [3]; inhibitor added to concentrations of up to 100 mM): fail to inhibit |
| Nc1ncnc2c1ncn2[C@@H]1O[C@H](COP(=O)(O)OP(=O)(O)OC[C@H]2O[C@@H]([n+]3cccc(C(=O)O)c3)[C@H](O)[C@@H]2O)[C@@H](O)[C@H]1O [NAAD, nicotinic acid adenine dinucleotide] | – | – | (1.1±0.1)×10^−3 s^−1 | 617 ± 43 | deacetylation activity with the dinucleotide as cosubstrate (Sir2Tm wild type [3]; up to 2.56 mg/ml enzyme, incubation 4 hours): no detectable deacetylation activity; also recorded: undetectable |
| NC(=O)c1cccnc1 [nicotinamide] | could catalyze formation of labeled NAD^+ | could catalyze formation of labeled NAD^+ | – | – | – |
| NC(=O)c1ccc[n+]([C@@H]2O[C@H](COP(=O)([O-])OP(=O)(O)OC[C@H]3O[C@@H](n4cnc5c(N)ncnc54)[C@H](O)[C@@H]3O)[C@@H](O)[C@H]2O)c1 [NAD^+, nicotinamide adenine dinucleotide] | – | – | (1.8±0.1)×10^−3 s^−1 | 1170 ± 180 | fold increase of KM, D101N mutant versus wild type (Sir2Tm-D101N mutant [1]; Sir2Tm-D101N versus wild type Sir2Tm): 22 fold; kcat of cosubstrate-dependent deacetylation (Sir2Tm wild type [3]): 0.170 ± 0.006 s⁻¹; Km (Sir2Tm wild type [3]; 400 μM fluorolabeled peptide, read-out: KM for cosubstrate): 53 ± 11 µM |
